Experimental data reported in PubChem BioAssay (NCI).
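Protocol summary: plate cells (96-well), add compound at 5 concentrations, incubate 48 h, interpolate endpoints linearly. GI50 is the concentration that inhibits growth by half. The concentration for full growth arrest is given as TGI.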

How the values were obtained:
Experiment in all cases: inhibition of tumour cell growth, NCI panel, 48 h
NCI-H460 lung = test system: NCI-H460 lung
NCI-H522 lung = test system: NCI-H522 lung
NCI/ADR-RES ovarian = test system: NCI/ADR-RES ovarian
OVCAR-3 ovarian = test system: OVCAR-3 ovarian
OVCAR-4 ovarian = test system: OVCAR-4 ovarian
OVCAR-5 ovarian = test system: OVCAR-5 ovarian
OVCAR-8 ovarian = test system: OVCAR-8 ovarian
RPMI-8226 leukemia = test system: RPMI-8226 leukemia
RXF 393 renal = test system: RXF 393 renal
SF-268 CNS = test system: SF-268 CNS
SF-295 CNS = test system: SF-295 CNS
SF-539 CNS = test system: SF-539 CNS
SK-MEL-2 melanoma = test system: SK-MEL-2 melanoma
SK-MEL-28 melanoma = test system: SK-MEL-28 melanoma
SK-MEL-5 melanoma = test system: SK-MEL-5 melanoma
SK-OV-3 ovarian = test system: SK-OV-3 ovarian
SN12C renal = test system: SN12C renal
SNB-19 CNS = test system: SNB-19 CNS
SNB-75 CNS = test system: SNB-75 CNS
SW-620 colon = test system: SW-620 colon
T-47D breast = test system: T-47D breast
TK-10 renal = test system: TK-10 renal
U251 CNS = test system: U251 CNS
UACC-62 melanoma = test system: UACC-62 melanoma
UO-31 renal = test system: UO-31 renal

For `Cc1ccc(/C(CSc2nnc(-c3c[nH]c4ccccc34)n2-c2ccccc2)=N/O)cc1`, the GI50 (NCI-H460 lung) was 3.18 µM, the TGI (NCI-H460 lung) was 12.2 µM and the GI50 (NCI-H522 lung) was 2.24 µM. The TGI (NCI-H522 lung) was 6.04 µM, the GI50 (NCI/ADR-RES ovarian) was 2 µM and the TGI (NCI/ADR-RES ovarian) was 3.9 µM. For the same compound, the GI50 (OVCAR-3 ovarian) was 4.26 µM, the TGI (OVCAR-3 ovarian) was 25.5 µM and the GI50 (OVCAR-4 ovarian) was 1.75 µM. It also gave a TGI (OVCAR-4 ovarian) of 3.51 µM, a GI50 (OVCAR-5 ovarian) of 1.69 µM and a TGI (OVCAR-5 ovarian) of 3.11 µM. For the same compound, the GI50 (OVCAR-8 ovarian) was 2.19 µM, the TGI (OVCAR-8 ovarian) was 4.89 µM and the GI50 (RPMI-8226 leukemia) was 2.05 µM. The TGI (RPMI-8226 leukemia) was 4.81 µM, the GI50 (RXF 393 renal) was 1.85 µM and the TGI (RXF 393 renal) was 3.76 µM. For the same compound, the GI50 (SF-268 CNS) was 1.99 µM, the TGI (SF-268 CNS) was 4.66 µM and the GI50 (SF-295 CNS) was 1.64 µM. It also gave a TGI (SF-295 CNS) of 3.18 µM, a GI50 (SF-539 CNS) of 2.06 µM and a TGI (SF-539 CNS) of 4.41 µM. It also gave a GI50 (SK-MEL-2 melanoma) of 2.88 µM, a TGI (SK-MEL-2 melanoma) of 8.96 µM and a GI50 (SK-MEL-28 melanoma) of 5.67 µM. It also gave a TGI (SK-MEL-28 melanoma) of 38.7 µM, a GI50 (SK-MEL-5 melanoma) of 4.76 µM and a TGI (SK-MEL-5 melanoma) of 48.1 µM. The GI50 (SK-OV-3 ovarian) was 1.68 µM, the TGI (SK-OV-3 ovarian) was 3.64 µM and the GI50 (SN12C renal) was 2.33 µM. For the same compound, the TGI (SN12C renal) was 6.8 µM, the GI50 (SNB-19 CNS) was 1.87 µM and the TGI (SNB-19 CNS) was 3.97 µM. The GI50 (SNB-75 CNS) was 1.4 µM, the TGI (SNB-75 CNS) was 2.77 µM and the GI50 (SW-620 colon) was 1.79 µM. It also gave a TGI (SW-620 colon) of 3.55 µM, a GI50 (T-47D breast) of 2.07 µM and a TGI (T-47D breast) of 4.75 µM. The GI50 (TK-10 renal) was 1.9 µM, the TGI (TK-10 renal) was 3.87 µM and the GI50 (U251 CNS) was 8.22 µM. It also gave a TGI (U251 CNS) of over 100 µM, a GI50 (UACC-62 melanoma) of 1.69 µM and a TGI (UACC-62 melanoma) of 3.26 µM. It also gave a GI50 (UO-31 renal) of 1.82 µM and a TGI (UO-31 renal) of 4.15 µM.
